Columns and labels:
[1] = Stability in Mouse Plasma; type: in vitro ADME; conditions: for half-life: mouse, plasma
[2] = Stability in SGF with pepsin; type: physicochemical
[3] = Stability in SGF without pepsin; type: physicochemical
physchem = conditions: buffer, pH 6.5
[4] = Table 8, if calculated T½ < 0, T½ reported as 9999 min

For `CC(C)[N+](C)(CCOC(=O)C1c2ccccc2Oc2ccccc21)C(C)C` [Propantheline, reference compound], which “Remaining Percentage” value ([1]; Table 9, 0 min) is on record?
Its value is 100.00%.

What about the “Remaining Percentage” value ([1]; Table 9, 15 min) of the same molecule?
Its value is 85.78%.

And the “Remaining Percentage” value ([1]; Table 9, 30 min)?
Its value is 70.74%.

What about the “Remaining Percentage” value ([1]; Table 9, 60 min) of the same molecule?
Its value is 29.46%.

And the “Remaining Percentage” value ([1]; Table 9, 120 min)?
The value was 8.74%.

And the “Remaining Percentage” value ([1]; Table 11, 0 min)?
The value was 100.00%.

And the “Remaining Percentage” value ([1]; Table 11, 15 min)?
The value was 80.81%.

And the “Remaining Percentage” value ([1]; Table 11, 30 min)?
The value was 64.04%.

What about the “Remaining Percentage” value ([1]; Table 11, 60 min) of the same molecule?
Its value is 34.86%.

What about the “Remaining Percentage” value ([1]; Table 11, 120 min) of the same molecule?
The value was 9.05%.

And the half-life ([1]; Table 9, read-out: T½)?
Its half-life is 0.543 h.

And the half-life ([1]; Table 11, read-out: T½)?
Its half-life is 0.568 h.

Which results are given for `C[N+](C)(CCc1c[nH]c2ccccc12)COP(=O)([O-])O` [VLS-02-23]?
T½ (Stability in PBS pH 6.5; Table 10): 166.65 h; Remaining Percentage (Stability in PBS pH 6.5; Table 10, 0 min): 100.00%; Remaining Percentage (Stability in PBS pH 6.5; Table 10, 30 min): 104.71%; Remaining Percentage (Stability in PBS pH 6.5; Table 10, 60 min): 106.37%; Remaining Percentage (Stability in PBS pH 6.5; Table 10, 120 min): 107.29%; Remaining Percentage (Stability in PBS pH 6.5; Table 10, 240 min): 117.35%; Remaining Percentage ([2]; Table 10, 0 min): 100.00%; Remaining Percentage ([2]; Table 10, 30 min): 96.70%; Remaining Percentage ([2]; Table 10, 60 min): 106.43%; Remaining Percentage ([2]; Table 10, 120 min): 102.36%; Remaining Percentage ([2]; Table 10, 240 min): 96.82%; half-life ([2]; Table 10, read-out: T½): 104 h; T½ ([3]; Table 10): 166.65 h; Remaining Percentage ([3]; Table 10, 0 min): 100.00%; Remaining Percentage ([3]; Table 10, 30 min): 98.76%; Remaining Percentage ([3]; Table 10, 60 min): 107.08%; Remaining Percentage ([3]; Table 10, 120 min): 101.90%; Remaining Percentage ([3]; Table 10, 240 min): 108.80%; Remaining Percentage ([1]; Table 11, 0 min): 100.00%; Remaining Percentage ([1]; Table 11, 15 min): 114.24%; Remaining Percentage ([1]; Table 11, 30 min): 110.21%; Remaining Percentage ([1]; Table 11, 60 min): 109.95%; Remaining Percentage ([1]; Table 11, 120 min): 91.16%; half-life ([1]; Table 11, read-out: T½): 9.47 h

For `CCCCC(=O)Oc1cccc2ccn(CCN(C)C)c12` [VLS-03-1], which “Peak Area of MRM: 205.0/159.8 (analyte VLS-03-1 Parent)” value (“Peak Area … (analyte VLS-03-1 Parent)” for short) (Stability in PBS pH 6.5; 0 min) is on record?
Its value is 5.04E+04.

What about the “Peak Area … (analyte VLS-03-1 Parent)” value (Stability in PBS pH 6.5; 30 min) of the same molecule?
Its value is 4.71E+04.

What about the “Peak Area … (analyte VLS-03-1 Parent)” value (Stability in PBS pH 6.5; 60 min) of the same molecule?
Its value is 4.71E+04.

What about the “Peak Area … (analyte VLS-03-1 Parent)” value (Stability in PBS pH 6.5; 120 min) of the same molecule?
The value was 4.86E+04.

What about the “Peak Area … (analyte VLS-03-1 Parent)” value (Stability in PBS pH 6.5; 240 min) of the same molecule?
The value was 4.75E+04.

What about the “Remaining Percentage” value (Stability in PBS pH 6.5; Table 8, 0 min) of the same molecule?
Its value is 100.00%.

And the “Remaining Percentage” value (Stability in PBS pH 6.5; Table 8, 30 min)?
The value was 96.32%.

And the “Remaining Percentage” value (Stability in PBS pH 6.5; Table 8, 60 min)?
Its value is 99.71%.

And the “Remaining Percentage” value (Stability in PBS pH 6.5; Table 8, 120 min)?
The value was 100.03%.

And the “Remaining Percentage” value (Stability in PBS pH 6.5; Table 8, 240 min)?
The value was 101.35%.

And the T½ (Stability in PBS pH 6.5; [4])?
The T½ was 166.65 h.

What about the “Peak Area … (analyte VLS-03-1 Parent)” value (Stability in PBS pH 6.5; VLS-03-1 standard) of the same molecule?
The value was 4.49E+04.

And the “Peak Area … (analyte VLS-03-1 Parent)” value ([2]; 0 min)?
The value was 5.72E+04.

And the “Peak Area … (analyte VLS-03-1 Parent)” value ([2]; 30 min)?
The value was 5.37E+04.

What about the “Peak Area … (analyte VLS-03-1 Parent)” value ([2]; 60 min) of the same molecule?
Its value is 5.01E+04.

And the “Peak Area … (analyte VLS-03-1 Parent)” value ([2]; 120 min)?
The value was 5.48E+04.

And the “Peak Area … (analyte VLS-03-1 Parent)” value ([2]; 240 min)?
The value was 5.27E+04.

And the “Remaining Percentage” value ([2]; Table 8, 0 min)?
Its value is 100.00%.

What about the “Remaining Percentage” value ([2]; Table 8, 30 min) of the same molecule?
Its value is 101.74%.

What about the “Remaining Percentage” value ([2]; Table 8, 60 min) of the same molecule?
The value was 90.49%.

What about the “Remaining Percentage” value ([2]; Table 8, 120 min) of the same molecule?
Its value is 102.16%.

What about the “Remaining Percentage” value ([2]; Table 8, 240 min) of the same molecule?
Its value is 96.47%.

What about the half-life [2, 4] of the same molecule?
The half-life was 149 h.

And the “Peak Area … (analyte VLS-03-1 Parent)” value ([2]; VLS-03-1 standard)?
The value was 4.22E+04.

What about the “Peak Area … (analyte VLS-03-1 Parent)” value ([3]; 0 min) of the same molecule?
The value was 4.53E+04.

What about the “Peak Area … (analyte VLS-03-1 Parent)” value ([3]; 30 min) of the same molecule?
Its value is 4.75E+04.

And the “Peak Area … (analyte VLS-03-1 Parent)” value ([3]; 60 min)?
Its value is 4.51E+04.

What about the “Peak Area … (analyte VLS-03-1 Parent)” value ([3]; 120 min) of the same molecule?
Its value is 4.66E+04.

And the “Peak Area … (analyte VLS-03-1 Parent)” value ([3]; 240 min)?
The value was 4.57E+04.

What about the “Remaining Percentage” value ([3]; Table 8, 0 min) of the same molecule?
Its value is 100.00%.

And the “Remaining Percentage” value ([3]; Table 8, 30 min)?
The value was 106.25%.

And the “Remaining Percentage” value ([3]; Table 8, 60 min)?
The value was 99.72%.

And the “Remaining Percentage” value ([3]; Table 8, 120 min)?
Its value is 104.22%.

What about the “Remaining Percentage” value ([3]; Table 8, 240 min) of the same molecule?
Its value is 103.22%.

And the T½ [3, 4]?
Its T½ is 166.65 h.

What about the “Peak Area … (analyte VLS-03-1 Parent)” value ([3]; VLS-03-1 standard) of the same molecule?
Its value is 3.75E+04.

What about the “Remaining Percentage” value ([1]; Table 9, 0 min) of the same molecule?
Its value is 100.00%.

And the “Remaining Percentage” value ([1]; Table 9, 15 min)?
The value was 0.00%.

And the “Remaining Percentage” value ([1]; Table 9, 30 min)?
Its value is 0.00%.

And the “Remaining Percentage” value ([1]; Table 9, 60 min)?
Its value is 0.00%.

And the “Remaining Percentage” value ([1]; Table 9, 120 min)?
The value was 0.00%.

Which results are given for `CC(OC(=O)C(C)C)OC(=O)n1cc(CCN(C)C)c2ccccc21` (stereo not shown) [VLS-03-10]?
Peak Area of MRM: 188.7/144.0 (analyte VLS-03-10 Parent) (Stability in PBS pH 6.5; 0 min): 5.32E+03; Peak Area of MRM: 188.7/144.0 (analyte VLS-03-10 Parent) (Stability in PBS pH 6.5; 30 min): 4.68E+03; Peak Area of MRM: 188.7/144.0 (analyte VLS-03-10 Parent) (Stability in PBS pH 6.5; 60 min): 5.00E+03; Peak Area of MRM: 188.7/144.0 (analyte VLS-03-10 Parent) (Stability in PBS pH 6.5; 120 min): 4.72E+03; Peak Area of MRM: 188.7/144.0 (analyte VLS-03-10 Parent) (Stability in PBS pH 6.5; 240 min): 4.95E+03; Remaining Percentage (Stability in PBS pH 6.5; Table 8, 0 min): 100.00%; Remaining Percentage (Stability in PBS pH 6.5; Table 8, 30 min): 92.62%; Remaining Percentage (Stability in PBS pH 6.5; Table 8, 60 min): 100.03%; Remaining Percentage (Stability in PBS pH 6.5; Table 8, 120 min): 92.63%; Remaining Percentage (Stability in PBS pH 6.5; Table 8, 240 min): 97.66%; Peak Area of MRM: 188.7/144.0 (analyte VLS-03-10 Parent) (Stability in PBS pH 6.5; VLS-03-10 standard): 4.34E+03; Peak Area of MRM: 188.7/144.0 (analyte VLS-03-10 Parent) ([2]; 0 min): 5.13E+03; Peak Area of MRM: 188.7/144.0 (analyte VLS-03-10 Parent) ([2]; 30 min): 5.10E+03; Peak Area of MRM: 188.7/144.0 (analyte VLS-03-10 Parent) ([2]; 60 min): 5.25E+03; Peak Area of MRM: 188.7/144.0 (analyte VLS-03-10 Parent) ([2]; 120 min): 5.32E+03; Peak Area of MRM: 188.7/144.0 (analyte VLS-03-10 Parent) ([2]; 240 min): 5.28E+03; Remaining Percentage ([2]; Table 8, 0 min): 100.00%; Remaining Percentage ([2]; Table 8, 30 min): 96.82%; Remaining Percentage ([2]; Table 8, 60 min): 93.09%; Remaining Percentage ([2]; Table 8, 120 min): 91.42%; Remaining Percentage ([2]; Table 8, 240 min): 89.32%; half-life [2, 4]: 26.7 h; Peak Area of MRM: 188.7/144.0 (analyte VLS-03-10 Parent) ([2]; VLS-03-10 standard): 4.05E+03; Peak Area of MRM: 188.7/144.0 (analyte VLS-03-10 Parent) ([3]; 0 min): 5.29E+03; Peak Area of MRM: 188.7/144.0 (analyte VLS-03-10 Parent) ([3]; 30 min): 4.98E+03; Peak Area of MRM: 188.7/144.0 (analyte VLS-03-10 Parent) ([3]; 60 min): 4.66E+03; Peak Area of MRM: 188.7/144.0 (analyte VLS-03-10 Parent) ([3]; 120 min): 4.93E+03; Peak Area of MRM: 188.7/144.0 (analyte VLS-03-10 Parent) ([3]; 240 min): 4.61E+03; Remaining Percentage ([3]; Table 8, 0 min): 100.00%; Remaining Percentage ([3]; Table 8, 30 min): 99.86%; Remaining Percentage ([3]; Table 8, 60 min): 104.95%; Remaining Percentage ([3]; Table 8, 120 min): 98.41%; Remaining Percentage ([3]; Table 8, 240 min): 98.86%; half-life [3, 4]: 117 h; Peak Area of MRM: 188.7/144.0 (analyte VLS-03-10 Parent) ([3]; VLS-03-10 standard): 3.46E+03; half-life (physchem): 331 h; Remaining Percentage ([1]; Table 9, 0 min): 100.00%; Remaining Percentage ([1]; Table 9, 15 min): 0.00%; Remaining Percentage ([1]; Table 9, 30 min): 0.00%; Remaining Percentage ([1]; Table 9, 60 min): 0.00%; Remaining Percentage ([1]; Table 9, 120 min): 0.00%
